Data as given in US8013011B2, “Treatment and prevention of benign pigmented moles (naevi) using artemisinine and the derivatives thereof” (EPIPHARM GmbH, priority 2005, dated 2011).

Assay: Skin tolerability observed during the topical treatments
Format: in vivo, human
Conditions: described topical treatments
From the text: A low-risk, non-invasive preventative or therapeutic treatment of acquired nevus cell nevi or of acquired or congenital nevus cell nevi (=birthmarks) with artemisinine and derivatives thereof (dihydroartemisinine, arteether, arthemeter, artesunate semisynthetic derivatives thereof and synthetically analogous compounds) represents enormous progress in the treatment of nevus cell nevi and could drastically reduce the risk of skin cancer. The invention is thus of great significance not only medically but also socioeconomically. […] It is also remarkable that healthy tissue is not damaged and the treatment is painless and simple.

C[C@H]1[C@H](OC(=O)CCC(=O)O)O[C@@H]2O[C@@]3(C)CC[C@H]4[C@H](C)CC[C@@H]1[C@@]24OO3 [artesunate]
allergic skin reactions: No allergic skin reactions
